Test results reported in patent publication US9974306B2, “Herbicidal combinations for tolerant soybean cultures” (priority 2012, dated 2018).

How the values were obtained:
GLXMA GM_W336 = assay: Post-emergence greenhouse treatment, visual rating of effect on W336 transgenic (HPPD inhibitor tolerant) soybean; type: in vivo; settings: for Effect (%): GLXMA GM_W336
Experimental: (§1) The soybeans were grown under the same conditions as described above. The following three varieties were used in the tests:
(§2) 1) W336—Transgenic soybean plants comprising a chimeric gene encoding a W336 mutant HPPD protein of Pseudomonas fluorescens (U.S. Pat. No. 6,245,968) fused to the optimized transit peptide for chloroplast targeting (U.S. Pat. No. 5,510,471), and under the control of the 35S CaMV promoter (Odell et al., 1985, Nature 313: 810-812) fused to the 5′ enhancer sequence of TEV (Carrington and Freed, 1990, J. Virol. 64: 1590-1597), with as 3′ transcript termination and polyadenylation region that of the CaMV 35S gene (Sanfacon et al., 1991, Genes & Development 5:141-149), abbreviated as “W336 soybean plants” herein. 2) MERLIN—conventional 3) PROTINA—conventional
(§3) Two sets of soybeans reaching different growth stages at application time were prepared: one up to growth stage BBCH 11 (1-2 leaf stage) and the other up to BBCH 13 (3-4 leaf stage). Both soybean sets were treated at the same time (together with the weeds) but they were evaluated separately.
(§4) The applications were performed by post emergence treatments on the planted pots using a spray volume of 300 L water per hectare. The herbicides were applied alone and in combination as in the tables below.
(§5) The trial was conducted in the greenhouse ensuring optimal growing conditions.
(§6) The herbicidal effects were assessed 14 and 24 days following application by visual ratings comparing treated and untreated plants (0%=no effect to 100%=complete die-off).
(§7) The visual ratings are used to calculate interactions between treatments alone and combination treatments according to S. R. Colby, Weeds 15, pages 20 to 22 (1967).

GLXMA Protina = assay: Post-emergence greenhouse treatment, visual rating of effect on conventional soybean PROTINA; type: in vivo; settings: for Effect (%): GLXMA Protina
Experimental: as §1, §2, §3, §4, §5, §6, §7

GLXMA Merlin = assay: Post-emergence greenhouse treatment, visual rating of effect on conventional soybean MERLIN; type: in vivo; settings: for Effect (%): GLXMA Merlin, assessment 24 d
Experimental: as §1, §2, §3, §4, §5, §6, §7

BRAPP = assay: Post-emergence greenhouse treatment, visual rating of herbicidal effect; type: in vivo, Brachiaria platyphylla; settings: for Effect (%): BRAPP
Experimental: (§8) Seeds of grass and broadleaf weeds were sown in pots (diameter: 8 cm) filled with a sandy loam soil. For the herbicide post-emergent treatment, the weeds were grown under optimal conditions up to a growth stage of BBCH 11 (1-2 leaf stage) to 14 (3-4 leaf stage) depending on species. The following weeds were used:
as §4, §5, §6, §7

SETFA = assay: as above; type: in vivo, Setaria faberi; settings: 1-2 leaf
Experimental: as §8, §4, §5, §6, §7

SETVI = assay: as above; type: in vivo, Setaria viridis; settings: 1-2 leaf; for Effect: 24 d; for Effect (%): SETVI, assessment 24 d
Experimental: as §8, §4, §5, §6, §7

SORHA = assay: as above; type: in vivo, Sorghum halepense
Experimental: as §8, §4, §5, §6, §7

BIDPI = assay: as above; type: in vivo, Bidens pilosa
Experimental: as §8, §4, §5, §6, §7

EPHHL = assay: as above; type: in vivo, Euphorbia heterophylla
Experimental: as §8, §4, §5, §6, §7

PHBPU = assay: as above; type: in vivo, Pharbitis purpurea
Experimental: as §8, §4, §5, §6, §7

POLCO = assay: as above; type: in vivo, Polygonum convolvulus; settings: for Effect (%): POLCO, (B1) alone 40 g a.i./ha
Experimental: as §8, §4, §5, §6, §7

[1] = 1-2 leaf, 14 d, 20 g a.i./ha alone
[2] = 1-2 leaf, 24 d, 20 g a.i./ha alone
[3] = 1-2 leaf, 24 d, 40 g a.i./ha alone
[4] = 1-2 leaf, 24 d, 80 g a.i./ha alone
[5] = 3-4 leaf, 14 d, 20 g a.i./ha alone
[6] = 3-4 leaf, 14 d, 80 g a.i./ha alone
[7] = 1-2 leaf, assessment 24 d, (B1) alone 40 g a.i./ha
[8] = 1-2 leaf, assessment 24 d, (B1) alone 80 g a.i./ha
[9] = 3-4 leaf, assessment 14 d, (B1) alone 20 g a.i./ha
[10] = 3-4 leaf, assessment 14 d, (B1) alone 40 g a.i./ha

CSc1nnc(C(C)(C)C)c(=O)n1N [(B1), 4-amino-6-tert-butyl-4,5-dihydro-3-methylthio-1,2,4-triazin-5-one]
0%: Effect (GLXMA Merlin; 1-2 leaf, 24 d, 40 g a.i./ha) | Effect (%) (GLXMA Merlin; 1-2 leaf, (B1) alone 40 g a.i./ha) | Effect (SORHA; 3-4 leaf, 24 d, 20 g a.i./ha) | Effect (PHBPU; [2]) | Effect (PHBPU; 1-2 leaf, 24 d, 40 g a.i./ha)
5%: Effect (BIDPI; [2]) | Effect (BIDPI; 3-4 leaf, 24 d, 20 g a.i./ha)
65%: Effect (EPHHL; [4])
30%: Effect (GLXMA GM_W336; [4]) | Effect (GLXMA GM_W336; 1-2 leaf, 24 d, 80 g a.i./ha) | Effect (GLXMA GM_W336; 3-4 leaf, 24 d, 20 g a.i./ha) | Effect (%) (GLXMA GM_W336; [8]) | Effect (SETFA; 14 d, 80 g a.i./ha)
35%: Effect (GLXMA GM_W336; [5]) | Effect (GLXMA GM_W336; [6]) | Effect (GLXMA GM_W336; 3-4 leaf, 14 d, 20 g a.i./ha) | Effect (GLXMA GM_W336; 3-4 leaf, 14 d, 40 g a.i./ha) | Effect (%) (GLXMA GM_W336; [9]) | Effect (%) (GLXMA GM_W336; [10]) | Effect (GLXMA Protina; 3-4 leaf, 14 d, 40 g a.i./ha) | Effect (GLXMA Protina; 3-4 leaf, 24 d, 20 g a.i./ha) | Effect (%) (GLXMA Protina; [10]) | Effect (%) (BRAPP; [8])
50%: Effect (GLXMA Merlin; [6]) | Effect (%) (SETVI; (B1) alone 40 g a.i./ha)
45%: Effect (BRAPP; 3-4 leaf, 14 d, 40 g a.i./ha) | Effect (%) (BRAPP; [10]) | Effect (BIDPI; [3]) | Effect (EPHHL; [1])
25%: Effect (GLXMA GM_W336; 1-2 leaf, 14 d, 80 g a.i./ha) | Effect (GLXMA Protina; [5]) | Effect (GLXMA Protina; 3-4 leaf, 14 d, 20 g a.i./ha) | Effect (%) (GLXMA Protina; [9])
20%: Effect (GLXMA GM_W336; [1]) | Effect (GLXMA Protina; [1]) | Effect (SORHA; 1-2 leaf, 14 d, 80 g a.i./ha) | Effect (SORHA; [5]) | Effect (SORHA; [6]) | Effect (SORHA; 3-4 leaf, 14 d, 20 g a.i./ha) | Effect (EPHHL; [2]) | Effect (EPHHL; 3-4 leaf, 24 d, 20 g a.i./ha) | Effect (POLCO; [4])
10%: Effect (GLXMA GM_W336; [2]) | Effect (GLXMA GM_W336; [3]) | Effect (GLXMA GM_W336; 1-2 leaf, 24 d, 40 g a.i./ha) | Effect (%) (GLXMA GM_W336; [7]) | Effect (%) (GLXMA Merlin; 1-2 leaf, (B1) alone 80 g a.i./ha) | Effect (BRAPP; [2]) | Effect (BRAPP; [3]) | Effect (BRAPP; 3-4 leaf, 24 d, 20 g a.i./ha) | Effect (%) (BRAPP; [7]) | Effect (SETFA; 24 d, 40 g a.i./ha) | Effect (%) (SETFA; SETFA, assessment 24 d, (B1) alone 40 g a.i./ha) | Effect (SETVI; 80 g a.i./ha alone) | Effect (SETVI; 80 g a.i./ha) | Effect (%) (SETVI; (B1) alone 80 g a.i./ha) | Effect (SORHA; [4]) | Effect (SORHA; 1-2 leaf, 24 d, 80 g a.i./ha) | Effect (%) (SORHA; SORHA, 1-2 leaf, assessment 24 d, (B1) alone 40 g a.i./ha) | Effect (PHBPU; 3-4 leaf, 14 d, 40 g a.i./ha) | Effect (POLCO; [5]) | Effect (POLCO; 3-4 leaf, 14 d, 20 g a.i./ha) | Effect (POLCO; 3-4 leaf, 24 d, 20 g a.i./ha)
15%: Effect (GLXMA Protina; [2]) | Effect (GLXMA Protina; [3]) | Effect (%) (GLXMA Protina; [7]) | Effect (BRAPP; [1]) | Effect (BRAPP; 3-4 leaf, 14 d, 20 g a.i./ha) | Effect (%) (BRAPP; [9]) | Effect (%) (POLCO; 1-2 leaf, assessment 24 d)
40%: Effect (GLXMA Protina; [4]) | Effect (GLXMA Protina; 1-2 leaf, 14 d, 80 g a.i./ha) | Effect (GLXMA Protina; 1-2 leaf, 24 d, 80 g a.i./ha) | Effect (GLXMA Merlin; 3-4 leaf, 24 d, 20 g a.i./ha) | Effect (BIDPI; 3-4 leaf, 14 d, 20 g a.i./ha) | Effect (%) (BIDPI; BIDPI, 3-4 leaf, assessment 14 d, (B1) alone 20 g a.i./ha) | Effect (POLCO; [6]) | Effect (%) (POLCO; 3-4 leaf, assessment 14 d)
